Results from patent publication US8569489B2 (A.B. Intelpharm Limited, priority 2007, dated 2013).
Structures can show the parent of a compound that is named as a salt. Where two headings read alike, the source gives them in different places.

Legend:
[1] = test system: isolated guinea pig ileum (spasmogenic effect of histamine); experiment: Isolated guinea pig ileum, suppression of the spasmogenic effect of histamine; assay type: cell-based; settings: histamine spasm, read-out: Antihistaminic activity, isolated ileum of guinea pig, IC50
Description: Study of the antihistaminic activity of the compounds on which a claim is made was done using known methodologies (Rukovodstvo po eksperimental'nomu izucheniyu novykh farmakologicheskikh veshchestv [Manual on experimental study of new pharmacological substances], Moscow, 2005, p. 489) on isolated guinea pig ileum (suppression of the spasmogenic effect of histamine) and on anesthetized guinea pigs (antagonism in relation to the bronchoconstrictor effect of histamine). In tests on intact animals, substances were administered intravenously (5 minutes before the administration of histamine) and orally (2 hours before the beginning of the study).

[2] = test system: H1-histamine receptors (bronchoconstrictor effect of histamine); experiment: Anesthetized guinea pigs, antagonism of the bronchoconstrictor effect of histamine (histamine bronchospasm model); assay type: in vivo, guinea pig; settings: for Antihistaminic activity, guinea pigs in vivo, intravenous administration, ED50 / Antihistaminic activity, guinea pigs in vivo, peroral administration, ED50: anesthetized guinea pigs; for Antihistaminic activity, guinea pigs in vivo, intravenous administration, ED50: 5 minutes before histamine; for Antihistaminic activity, guinea pigs in vivo, peroral administration, ED50: orally 2 hours before the study; for ED50: Cavia porcellus
Method: In tests on intact animals, substances were administered intravenously (5 minutes before the administration of histamine) and orally (2 hours before the beginning of the study).

mice = experiment: Acute toxicity, mice perorally

Row | SMILES | IC50 [1] [nM] | Antihistaminic activity, guinea pigs in vivo, intravenous administration, ED50 [2] [mg/kg] | Antihistaminic activity, guinea pigs in vivo, peroral administration, ED50 [2] [mg/kg] | Acute toxicity, LD50 (mice) [mg/kg] | also measured
1 | Cl.Cl.Cn1c(=O)n(CCCCN2CCN(C(c3ccccc3)c3ccccc3)CC2)c(=O)c2[nH]cnc21 [I-s, 1-[4-(benzhydryl-4-piperazinyl-1)butyl]-3-methylxanthine dihydrochloride] | 26 | 0.2 | 0.3 | >750.0 | –
2 | Cn1c(=O)n(CC(O)CN2CCN(C(c3ccccc3)c3ccc(Cl)cc3)CC2)c(=O)c2c1ncn2Cc1ccccc1 (stereo not shown) [I-aa, 1-[2-oxy-3-(4^1-chlorbenzhydryl-4-piperazinyl-1)propyl]-3-methyl-7-benzylxanthine] | 536 | – | – | – | –
3 | Cl.Cl.Cn1c(=O)c2c(ncn2CC(O)CN2CCN(C(c3ccc(F)cc3)c3ccc(F)cc3)CC2)n(C)c1=O (racemic) [II-j] | – | – | – | >1000.0 | –
4 | Cn1c(=O)n(CCCN2CCN(C(c3ccc(F)cc3)c3ccc(F)cc3)CC2)c(=O)c2c1ncn2Cc1ccc(F)cc1 [I-f] | 514 | – | – | – | –
5 | Cn1c(=O)n(CC(O)CN2CCN(C(c3ccccc3)c3ccccc3)CC2)c(=O)c2c1ncn2Cc1ccccc1 (stereo not shown) [I-z, 1-[2-oxy-3-(benzhydryl-4-piperazinyl-1)-propyl]-3-methyl-7-benzylxanthine] | 524 | – | – | – | –
6 | Cl.Cl.Cn1c(=O)n(CCN2CCN(C(c3ccc(F)cc3)c3ccc(F)cc3)CC2)c(=O)c2[nH]cnc21 [I-p] | 192 | 1.5 | – | – | –
7 | Cn1c(=O)n(CCCN2CCN(C(c3ccccc3)c3ccccc3)CC2)c(=O)c2c1ncn2CC(=O)O [I-g] | 244 | – | – | – | –
8 | Cl.Cl.Cn1c(=O)n(CCCCN2CCN(C(c3ccc(F)cc3)c3ccc(F)cc3)CC2)c(=O)c2c1ncn2Cc1ccccc1 [I-l] | 185 | 0.5 | 0.5 | >1000.0 | –
9 | Cl.Cl.Cn1c(=O)n(CCCN2CCN(C(c3ccccc3)c3ccccc3)CC2)c(=O)c2c1ncn2Cc1ccccc1 [I-b] | 126 | 0.3 | – | >800.0 | –
10 | Cn1cnc2c1c(=O)n(CC(O)CN1CCN(C(c3ccccc3)c3ccc(Cl)cc3)CC1)c(=O)n2C (stereo not shown) [I-y, 1-[2-oxy-3-(4^1-chlorbenzhydryl-4-piperazinyl-1)propyl]-3,7-dimethylxanthine] | 123 | – | – | – | –
11 | Cl.Cl.Cn1c(=O)n(CCCN2CCN(C(c3ccc(F)cc3)c3ccc(F)cc3)CC2)c(=O)c2[nH]cnc21 [I-r] | 76 | – | >3.0 | >1000.0 | –
12 | Cl.Cl.Cn1c(=O)c2c(ncn2CCCN2CCN(C(c3ccccc3)c3ccccc3)CC2)n(C)c1=O [II-d] | 12 | 0.05 | – | >1000.0 | –
13 | CCOC(=O)N1CCC(=C2c3ccc(Cl)cc3CCc3cccnc32)CC1 [Loratadine, reference compound] | – | – | – | – | IC50 ([1]; Cavia porcellus): 472 nM; ED50 ([2]; iv, read-out: Antihistaminic activity, guinea pigs in vivo, intravenous administration, ED50): 0.3 mg/kg; ED50 ([2]; po, read-out: Antihistaminic activity, guinea pigs in vivo, peroral administration, ED50): 0.9 mg/kg; Duration of effective blockade of H1-histamine receptors ([2]; histamine bronchospasm model, oral dose of 3 mg/kg): 18 h
14 | Cl.Cl.Cn1c(=O)n(CCCN2CCN(C(c3ccccc3)c3ccccc3)CC2)c(=O)c2[nH]cnc21 [I-q] | 42 | 0.4 | – | >1000.0 | –
15 | Cl.Cl.Cn1c(=O)n(CCCCN2CCN(C(c3ccccc3)c3ccc(Cl)cc3)CC2)c(=O)c2[nH]cnc21 (stereo not shown) [I-t] | 104 | 0.3 | – | >1000.0 | –
16 | Cl.Cl.Cn1c(=O)n(CCCN2CCN(C(c3ccccc3)c3ccc(Cl)cc3)CC2)c(=O)c2c1ncn2Cc1ccccc1 (stereo not shown) [I-c] | 133 | – | – | 400.0 | –
17 | Cl.Cl.Cn1c(=O)n(CCCCN2CCN(C(c3ccc(F)cc3)c3ccc(F)cc3)CC2)c(=O)c2[nH]cnc21 [I-u] | 51 | 0.7 | >3.0 | >1000.0 | –
18 | Cl.Cl.Cn1c(=O)n(CCCCN2CCN(C(c3ccccc3)c3ccccc3)CC2)c(=O)c2c1ncn2Cc1ccc(F)cc1 [I-j] | 227 | – | – | 400.0 | –
19 | Cl.Cl.Cn1c(=O)n(CCCN2CCN(C(c3ccc(F)cc3)c3ccc(F)cc3)CC2)c(=O)c2c1ncn2Cc1ccccc1 [I-d] | 114 | 0.6 | 3.0 | >250.0 | –
20 | Cn1c(=O)n(CCCN2CCN(C(c3ccccc3)c3ccccc3)CC2)c(=O)c2c1ncn2Cc1ccc(F)cc1 [I-e] | 430 | – | – | – | –
21 | Cl.Cl.Cn1c(=O)c2c(ncn2CCCCN2CCN(C(c3ccccc3)c3ccccc3)CC2)n(C)c1=O [II-f] | 17 | 0.1 | <1.5 | 750.0 | –
22 | Cl.Cl.Cn1cnc2c1c(=O)n(CCCCN1CCN(C(c3ccccc3)c3ccccc3)CC1)c(=O)n2C [I-v] | 32 | 0.2 | >1.5 | >1000.0 | –
23 | Cl.Cl.Cn1c(=O)c2c(ncn2CC(O)CN2CCN(C(c3ccccc3)c3ccc(Cl)cc3)CC2)n(C)c1=O (racemic) [II-i] | – | – | – | >1000.0 | –
24 | Cl.Cl.Cn1c(=O)n(CCCCN2CCN(C(c3ccccc3)c3ccccc3)CC2)c(=O)c2c1ncn2Cc1ccccc1 [I-i] | 111 | 0.2 | 0.3 | 400.0 | –
25 | Cl.Cl.Cn1c(=O)c2c(ncn2CC(O)CN2CCN(C(c3ccccc3)c3ccccc3)CC2)n(C)c1=O (stereo not shown) [II-h, 1,3-dimethyl-7-[2-oxy-3-(benzhydryl-4-piperazinyl-1)propyl]xanthine dihydrochloride] | – | 0.1 | 2.0 | >1000.0 | –
26 | Cl.Cl.Cn1c(=O)n(CCCCCN2CCN(C(c3ccccc3)c3ccccc3)CC2)c(=O)c2c1ncn2Cc1ccccc1 [I-m] | 92 | – | – | >200.0 | –
27 | Cl.Cl.Cn1c(=O)n(CCCCN2CCN(C(c3ccc(F)cc3)c3ccc(F)cc3)CC2)c(=O)c2c1ncn2Cc1ccc(F)cc1 [I-k] | 267 | – | – | 400.0 | –
28 | Cl.Cl.Cn1c(=O)[nH]c(=O)c2c1ncn2CCCN1CCN(C(c2ccccc2)c2ccccc2)CC1 [II-e] | 19 | 0.1 | – | 900.0 | –
29 | Cn1cnc2c1c(=O)n(CC(O)CN1CCN(C(c3ccccc3)c3ccccc3)CC1)c(=O)n2C (stereo not shown) [I-x, 1-[2-oxy-3-(benzhydryl-4-piperazinyl-1)propyl]-3,7-dimethylxanthine dihydrochloride] | 1270 | – | – | – | –
30 | Cl.Cl.Cn1c(=O)n(CCCCCN2CCN(C(c3ccc(F)cc3)c3ccc(F)cc3)CC2)c(=O)c2c1ncn2Cc1ccccc1 [I-n] | 253 | 1.2 | 3.0 | 250 | –
